Reference: ChEMBL document CHEMBL1687797, “A mecA-negative strain of methicillin-resistant Staphylococcus aureus with high-level β-lactam resistance contains mutations in three genes” (2010)
≈ marks a conversion by molar mass, not a printed value.

Test system: Staphylococcus aureus
Assay: Antimicrobial activity against methicillin-, tetracycline-susceptible and chromosomal mecA deficient Staphylococcus aureus COLnex
Type: functional
Conditions: not given

Point of comparison: Cc1nnc(SCC2=C(C(=O)O)N3C(=O)[C@@H](NC(=O)Cn4cnnn4)[C@H]3SC2)s1 [CEFAZOLIN], MIC 0.5 µg/mL (≈ 1.1 µM). Against it:
- CC1(C)S[C@@H]2[C@H](NC(=O)[C@H](N)c3ccccc3)C(=O)N2[C@H]1C(=O)O [AMPICILLIN] — lower, < 0.25 µg/mL
- CO[C@@]1(NC(=O)Cc2cccs2)C(=O)N2C(C(=O)O)=C(COC(N)=O)CS[C@@H]21 [CEFOXITIN] — 8-fold higher, 4 µg/mL (≈ 9.36 µM)
- Nc1nc(/C(=N/O)C(=O)N[C@@H]2C(=O)N3C(C(=O)O)=C(/C=C4\CCN([C@@H]5CCNC5)C4=O)CS[C@H]23)ns1 [CEFTOBIPROLE] — lower, < 0.25 µg/mL
- CO/N=C(\C(=O)N[C@@H]1C(=O)N2C(C(=O)O)=C(CSc3nc(=O)c(O)nn3C)CS[C@H]12)c1csc(N)n1 [CEFTRIAXONE] — 8-fold higher, 4 µg/mL (≈ 7.21 µM)
- CCOc1ccc2ccccc2c1C(=O)N[C@@H]1C(=O)N2[C@@H]1SC(C)(C)[C@@H]2C(=O)O [NAFCILLIN] — the same, 0.5 µg/mL (≈ 1.21 µM)

Test system: Staphylococcus aureus
Assay: Antimicrobial activity against beta-lactam-resistant and chromosomal mecA deficient Staphylococcus aureus CRB harboring PBP4 E183A F241R, GdpP N182K and AcrB I960V mutant genes selected after 21 days of serial passage in ceftobiprole
Type: functional
Conditions: 504 h

Point of comparison: CC1(C)S[C@@H]2[C@H](NC(=O)[C@H](N)c3ccccc3)C(=O)N2[C@H]1C(=O)O [AMPICILLIN], MIC 256 µg/mL (≈ 733 µM). Against it:
- Cc1nnc(SCC2=C(C(=O)O)N3C(=O)[C@@H](NC(=O)Cn4cnnn4)[C@H]3SC2)s1 [CEFAZOLIN] — higher, > 256 µg/mL
- CO[C@@]1(NC(=O)Cc2cccs2)C(=O)N2C(C(=O)O)=C(COC(N)=O)CS[C@@H]21 [CEFOXITIN] — 32-fold lower, 8 µg/mL (≈ 18.7 µM)
- Nc1nc(/C(=N/O)C(=O)N[C@@H]2C(=O)N3C(C(=O)O)=C(/C=C4\CCN([C@@H]5CCNC5)C4=O)CS[C@H]23)ns1 [CEFTOBIPROLE] — 2-fold lower, 128 µg/mL (≈ 239 µM)
- CO/N=C(\C(=O)N[C@@H]1C(=O)N2C(C(=O)O)=C(CSc3nc(=O)c(O)nn3C)CS[C@H]12)c1csc(N)n1 [CEFTRIAXONE] — the same, 256 µg/mL (≈ 462 µM)
- CCOc1ccc2ccccc2c1C(=O)N[C@@H]1C(=O)N2[C@@H]1SC(C)(C)[C@@H]2C(=O)O [NAFCILLIN] — 2-fold lower, 128 µg/mL (≈ 309 µM)

Test system: Staphylococcus aureus
Assay: Antimicrobial activity against methicillin-resistant Staphylococcus aureus COL
Type: functional
Conditions: not given

Work on Nc1nc(/C(=N/O)C(=O)N[C@@H]2C(=O)N3C(C(=O)O)=C(/C=C4\CCN([C@@H]5CCNC5)C4=O)CS[C@H]23)ns1 [CEFTOBIPROLE] yielded an MIC of 1 µg/mL (≈ 1.87 µM).

Test system: Staphylococcus aureus
Assay: Antimicrobial activity against beta-lactam-resistant and chromosomal mecA deficient Staphylococcus aureus CRB harboring PBP4 E183A F241R, GdpP N182K and AcrB I960V mutant genes selected after 21 days of serial passage
Type: functional
Conditions: 504 h

In the case of Nc1nc(/C(=N/O)C(=O)N[C@@H]2C(=O)N3C(C(=O)O)=C(/C=C4\CCN([C@@H]5CCNC5)C4=O)CS[C@H]23)ns1 [CEFTOBIPROLE], the MIC is reported as 128 µg/mL (≈ 239 µM).

Test system: Staphylococcus aureus
Assay: Antimicrobial activity against methicillin-resistant and tetracycline-sensitive Staphylococcus aureus COLn
Type: functional
Conditions: not given

Point of comparison: Cc1nnc(SCC2=C(C(=O)O)N3C(=O)[C@@H](NC(=O)Cn4cnnn4)[C@H]3SC2)s1 [CEFAZOLIN], MIC 256 µg/mL (≈ 563 µM). Against it:
- CO[C@@]1(NC(=O)Cc2cccs2)C(=O)N2C(C(=O)O)=C(COC(N)=O)CS[C@@H]21 [CEFOXITIN] — the same, 256 µg/mL (≈ 599 µM)
- Nc1nc(/C(=N/O)C(=O)N[C@@H]2C(=O)N3C(C(=O)O)=C(/C=C4\CCN([C@@H]5CCNC5)C4=O)CS[C@H]23)ns1 [CEFTOBIPROLE] — 260-fold lower, 1 µg/mL (≈ 1.87 µM)
- CO/N=C(\C(=O)N[C@@H]1C(=O)N2C(C(=O)O)=C(CSc3nc(=O)c(O)nn3C)CS[C@H]12)c1csc(N)n1 [CEFTRIAXONE] — higher, > 256 µg/mL
- CCOc1ccc2ccccc2c1C(=O)N[C@@H]1C(=O)N2[C@@H]1SC(C)(C)[C@@H]2C(=O)O [NAFCILLIN] — the same, 256 µg/mL (≈ 618 µM)
